Test results published in article PMC9598656, “In Vitro Activity of Robenidine Analogues NCL259 and NCL265 against Gram-Negative Pathogens” (Antibiotics, 2022).
Values after ≈ are worked out from the molar mass of the structure shown.

How the values were obtained:
E. coli ATCC 10763 = assay: MIC, broth micro-dilution; type: cell-based, Escherichia coli; conditions: Escherichia coli, ATCC10763, read-out: MIC, Single Drug
Method: (§1) A variety of Gram-negative reference strains (E. coli ATCC 25922, E. coli ATCC 10763, P. aeruginosa PAO1, P. aeruginosa ATCC 27853, A. baumannii ATCC 12457, A. baumannii ATCC 19606, K. pneumoniae ATCC 4352 and K. pneumoniae ATCC 33495) were used for initial screening and combination testing with PMB. The organisms were speciated using biochemical testing and MALDI-TOF mass spectrometry (Bruker, Preston, VIC, Australia). Activity testing of NCL259 and NCL265 was also carried out on 51 extraintestinal clinical E. coli isolates from companion animals, and 83 porcine and bovine enterotoxigenic E. coli (ETEC) isolates from the Australian Centre for Antimicrobial Resistance Ecology collection. E. coli wild-type (BW 25113) and its mutant BW 25113∆AcrB, in which the inner membrane component AcrB of the tripartite multidrug efflux system AcrA/AcrB/TolC has been deleted, were obtained from the bacterial collection held at Health and Biomedical Innovation, Clinical and Health Sciences, The University of South Australia. All isolates were cultured on sheep blood agar (SBA) plates at 37 °C for 18 h before being subcultured into Luria Bertaini (LB) (Oxoid, Scoresby, VIC, Australia) broth and grown to A600nm = 0.5 (equivalent to approx. 1.5 × 10^8 colony-forming units (CFU)/mL).
(§2) MICs for NCL259 and NCL265 (serial two-fold dilutions commencing at 256 µg/mL) were determined (in duplicate) in round bottom 96–well microtitre trays (Sarstedt 82.1582.001), using the broth micro-dilution method recommended by the Clinical and Laboratory Standards Institute (CLSI). We have shown previously that robenidine can chelate calcium ions from cation-adjusted Mueller-Hinton broth, which causes the loss of activity of robenidine. Therefore, LB broth was used in this study. Additionally, considering the low solubility of robenidine and its analogues in aqueous solutions, two-fold serial dilutions of stock solutions of these compounds were prepared in 100% DMSO [21]. The MIC for ampicillin against each isolate was determined for each test to serve as an internal quality control. The MICs of isolates were determined by visual reading and using an EnSpire Multimode Plate Reader 2300 at A600nm.

E. coli ATCC 25922 = assay: MIC, broth micro-dilution; type: cell-based, Escherichia coli; conditions: Escherichia coli, ATCC25922, read-out: MIC, Single Drug
Method: as §1, §2

[1] = test system: 51 clinical ExPEC isolates from companion animals and 83 porcine and bovine ETEC isolates; assay: MIC, broth micro-dilution, all animal clinical isolates; type: cell-based, Escherichia coli; conditions: ExPEC and ETEC isolates together
Method: A variety of Gram-negative reference strains (E. coli ATCC 25922, E. coli ATCC 10763, P. aeruginosa PAO1, P. aeruginosa ATCC 27853, A. baumannii ATCC 12457, A. baumannii ATCC 19606, K. pneumoniae ATCC 4352 and K. pneumoniae ATCC 33495) were used for initial screening and combination testing with PMB. The organisms were speciated using biochemical testing and MALDI-TOF mass spectrometry (Bruker, Preston, VIC, Australia). Activity testing of NCL259 and NCL265 was also carried out on 51 extraintestinal clinical E. coli isolates from companion animals, and 83 porcine and bovine enterotoxigenic E. coli (ETEC) isolates from the Australian Centre for Antimicrobial Resistance Ecology collection. […]
MICs for NCL259 and NCL265 (serial two-fold dilutions commencing at 256 µg/mL) were determined (in duplicate) in round bottom 96–well microtitre trays (Sarstedt 82.1582.001), using the broth micro-dilution method recommended by the Clinical and Laboratory Standards Institute (CLSI). […] The MIC for ampicillin against each isolate was determined for each test to serve as an internal quality control. The MICs of isolates were determined by visual reading and using an EnSpire Multimode Plate Reader 2300 at A600nm.

K. pneumoniae ATCC 4352 [2] = test system: K. pneumoniae ATCC 4352; parameters: method as in PMID 30318716; conditions: after 30 min treatment; cited from earlier work
[3] = test system: Companion animal ExPEC (n = 51); assay: MIC, broth micro-dilution, clinical isolates; type: cell-based, Escherichia coli; conditions: for MIC range: Companion animal ExPEC (n = 51); for MIC50 / MIC90: Escherichia coli
Method: as §1, §2

[4] = test system: Porcine/bovine ETEC (n = 83); assay: MIC, broth micro-dilution, clinical isolates; type: cell-based, Escherichia coli; conditions: for MIC50 / MIC90: Escherichia coli; for MIC range: Porcine/bovine ETEC (n = 83)
Method: as §1, §2

[5] = test system: human Gram-negative isolates comprising 19 E. aerogenes, 20 E. coli, 19 E. cloacae, 20 K. pneumoniae and 16 K. oxytoca; parameters: method as in PMID 30318716; conditions: panel of human Gram-negative isolates; cited from earlier work
[6] = test system: Caco-2 (human colorectal adenocarcinoma cell line); assay: In vitro cytotoxicity, WST-1; type: cell-based; conditions: Caco-2, 24 h
E. coli BW 25113 (∆AcrB) = assay: MIC, efflux-pump mutant; type: cell-based, Escherichia coli; conditions: for reduction of MIC in the ∆AcrB mutant compared to wild-type: E. coli BW 25113 ∆AcrB vs wild-type parent; for MIC: Escherichia coli, read-out: MIC Values
Method: as §1, §2

K. pneumoniae ATCC 33495 = assay: MIC, broth micro-dilution; type: cell-based, Klebsiella pneumoniae; conditions: Klebsiella pneumoniae, ATCC33495, read-out: MIC, Single Drug
Method: as §1, §2

K. pneumoniae ATCC 4352 [7] = assay: MIC, broth micro-dilution; type: cell-based, Klebsiella pneumoniae; conditions: Klebsiella pneumoniae, ATCC4352, read-out: MIC, Single Drug
Method: as §1, §2

[8] = first of two independent experiments
[9] = second of two independent experiments

## [H]/N=C(\N)NN=C(CC1CCCCC1)c1ccc(Cl)cc1 [NCL259, (E)-2-(1-(4-chlorophenyl)-2-cyclohexylethylidene)hydrazine-1-carboximidamide]
E. coli ATCC 10763
  MIC: 64 µg/mL
E. coli ATCC 25922
  MIC: 16 µg/mL
[1]
  MIC range: 4 to 64 µg/mL
K. pneumoniae ATCC 4352 [2]
  reduction in CFU (bactericidal): > 5 log 10
[3]
  MIC range: 16 to 64 µg/mL
  MIC50: 32 µg/mL
  MIC90: 32 µg/mL
[4]
  MIC50: 8 µg/mL
  MIC90: 8 µg/mL
  MIC range: 4 to 64 µg/mL
[5]
  MIC range: 2 to 64 µg/mL
[6]; [8]
  IC50: < 1 µg/mL
[6]; [9]
  IC50: 3 µg/mL (≈ 10.2 µM)
E. coli BW 25113 (∆AcrB)
  reduction of MIC in the ∆AcrB mutant compared to wild-type: 16 fold
  MIC: 4 µg/mL
K. pneumoniae ATCC 33495
  MIC: 64 µg/mL
K. pneumoniae ATCC 4352 [7]
  MIC: 8 µg/mL

## [H]/N=C(\N)NN=C(CCCCCC)c1ccc(Cl)cc1 [NCL265, (E)-2-(1-(4-chlorophenyl)heptylidene)hydrazine-1-carboximidamide]
E. coli ATCC 10763
  MIC: 64 µg/mL
E. coli ATCC 25922
  MIC: 4 µg/mL
[1]
  MIC range: 2 to 16 µg/mL
K. pneumoniae ATCC 4352 [2]
  reduction in CFU (bactericidal): > 5 log 10
[3]
  MIC range: 4 to 16 µg/mL
  MIC50: 32 µg/mL
  MIC90: 32 µg/mL
[4]
  MIC50: 8 µg/mL
  MIC90: 8 µg/mL
  MIC range: 2 to 16 µg/mL
[5]
  MIC range: 2 to 64 µg/mL
[6]; [8]
  IC50: < 1 µg/mL
[6]; [9]
  IC50: < 2 µg/mL
E. coli BW 25113 (∆AcrB)
  reduction of MIC in the ∆AcrB mutant compared to wild-type: 16 fold
  MIC: 1 µg/mL
K. pneumoniae ATCC 33495
  MIC: 64 µg/mL
K. pneumoniae ATCC 4352 [7]
  MIC: 2 µg/mL
